Patent US11311501B2, “Mitoriboscins: mitochondrial-based therapeutics targeting cancer cells, bacteria, and pathogenic yeast” (LUNELLA BIOTECH, INC., priority 2017, dated 2022)
In brackets after ≈: the same amount, converted by molar mass.

Columns and labels:
MCF7 cells [1] = experiment: Mammosphere formation assay; assay type: cell-based, human; conditions: 5 μM, FIG. 5
Excerpt: The present approach involves methods of testing compounds, and in particular mitoriboscins, for anti-cancer properties. As discussed above, vHTS and computational chemistry may be used to identify candidate mitochondrial inhibitors. Those candidates may be tested for specific anti-cancer properties. For examples, the inventors compared seven candidate compounds in parallel for their ability to inhibit mammosphere formation in MCF7 cells. […] For example, 23/G4 (Group 1) reduced mammosphere formation by 50% at this concentration. Similarly, 24/F9 (Group 2) and 24/D4 (Group 3), both reduced mammosphere formation by ˜90%.

MCF7 cell monolayers = experiment: Cell viability of MCF7 monolayers (SRB); assay type: cell-based, human; conditions: FIG. 6
Description: (§1) The present approach includes methods of confirming cell viability. Persons of skill in the art may select one or more methods for confirming cell viability suitable for the particular embodiment. The inventors initially used the Sulphorhodamine (SRB) assay, which is based on the measurement of cellular protein content. After treatment for 72 hours in 96-well plates, cells were fixed with 10% trichloroacetic acid (TCA) for 1 hour in the cold room, and were dried overnight at room temperature. Then, cells were incubated with SRB for 15 min, washed twice with 1% acetic acid, and air dried for at least 1 hour. Finally, the protein-bound dye was dissolved in a 10 mM Tris, pH 8.8 solution and read using the plate reader at 540-nm. Using the SRB assay, the inventors selected only the compounds depleting ATP levels without prominent cytotoxicity for further analysis. Prominent cytotoxicity was defined as fewer than 30% of cells still on the plate. Of course, embodiments employing other cell viability confirmation methodology may select compounds for further analysis based on other considerations as may be known in the art.
(§2) Based on this analysis, the inventors assessed the functional effects of the three candidates on overall viability in MCF7 cell monolayers and normal human fibroblasts (hTERT-BJ1 cells) (FIG. 6). […]

hTERT-BJ1 cells = experiment: Cell viability of normal fibroblasts; assay type: cell-based; conditions: 5 μM, normal human fibroblasts, FIG. 6
Description: as §1, §2

MCF7 cells [2] = experiment: Seahorse XF96 metabolic flux analysis (OCR/ECAR); assay type: cell-based, human
Excerpt: The present approach further involves methods of functional validation at step S105, during which a compound's function as a mitochondrial inhibitor may be confirmed. A number of methods may be used for functional validation, including, for example, metabolic flux analysis, mammosphere assays, viability assays, and antibiotic (anti-bacterial and/or anti-fungal) activity. For example, the inventors determined extracellular acidification rates (ECAR) and real-time oxygen consumption rates (OCR) for MCF7 cells using the Seahorse Extracellular Flux (XF96) analyzer (Seahorse Bioscience, MA, USA). MCF7 cells were maintained in DMEM supplemented with 10% FBS (fetal bovine serum), 2 mM GlutaMAX, and 1% Pen-Strep. 5,000 cells per well were seeded into XF96-well cell culture plates, and incubated overnight at 37° C. in a 5% CO2 humidified atmosphere. After 24 hours, cells were treated with selected compounds showing ATP-depletion without prominent cytotoxicity at various concentrations (or vehicle alone). After 72 hours of treatment, cells were washed in pre-warmed XF assay media (for OCR measurement, XF assay media was supplemented with 10 mM glucose, 1 mM Pyruvate, 2 mM L-glutamine and adjusted at pH 7.4). Cells were maintained in 175 μL/well of XF assay media at 37° C. in a non-CO2 incubator for 1 hour. During incubation, 25 μL of 80 mM glucose, 9 μM oligomycin, 1M 2-deoxyglucose (for ECAR measurement) and 25 μL of 10 μM oligomycin, 9 μM FCCP, 10 μM rotenone, 10 μM antimycin A (for OCR measurement) in XF assay media was loaded into the injection ports of the XFe-96 sensor cartridge. During the experiment, the instrument injected these inhibitors into the wells at a given time point, while ECAR/OCR was measured continuously. ECAR and OCR measurements were normalized by protein content (using the Sulphorhodamine B assay). Data sets were analyzed by XFe-96 software, using one-way ANOVA and Student's t-test calculations. All experiments were performed in triplicate, and results validated the mitochondrial inhibition effects of mitoriboscin compounds described herein. It should be appreciated that numerous methods are known for functional validation, and that persons of skill in the art may select one or more depending on the validation needs (e.g., other assays that measure or approximate mitochondrial function). The present approach involves methods of function validation of mitoriboscin compounds. For example, the inventors assessed functional validation of three candidates using the Seahorse Analyzer, which quantitatively measures oxygen consumption rate (OCR) and extracellular acidification rate (ECAR). OCR is a surrogate marker for OXPHOS and ECAR is a surrogate marker for glycolysis and L-lactate production.

E. coli ATCC 25922 = experiment: MIC by broth dilution method; assay type: cell-based; conditions: E. coli ATCC 25922, 24 hours at 37° C.
Description: (§3) The minimal inhibitory concentration (MIC) of the antibacterial compounds may be determined using the broth dilution method, according to CLSI guidelines. Test compound solutions (or antibiotic solutions used as positive controls) were diluted, serially, with MHB medium. Then, the suspensions of the microorganisms, prepared from overnight cultures of bacteria in the MHB medium, at a concentration of 10^6 CFU/ml, were added to each dilution in a 1:1 ratio. McFarland standards were used as a reference to adjust the turbidity of microorganism suspensions. Growth (or lack thereof) of the microorganisms was determined after incubation for 24 hours at 37° C. by turbidimetry (wavelength of 600 nm). […] The susceptibility test by measurement of MIC was performed in triplicate and repeated three times independently.

K. pneumoniae ATCC 13883 = experiment: MIC by broth dilution method; assay type: cell-based
Description: as §3

[3] = test system: Staph. aureus ATCC 25923 (MSSA); experiment: MIC by broth dilution method; assay type: cell-based
Description: as §3

[4] = test system: Strept. pyogenes ATCC 19615; experiment: MIC by broth dilution method; assay type: cell-based
Description: as §3

P. auriginosa ATCC 27853 = experiment: MIC by broth dilution method; assay type: cell-based, P. aeruginosa
Description: as §3

C. albicans = experiment: MIC by broth dilution method; assay type: cell-based; conditions: C. albicans ATCC 13883
Description: as §3, with “nm). MIC 50 and MIC 99 are defined as the minimum inhibitory concentration of the compound required for 50% and 99% inhibition of bacterial growth.” for “nm).”, “independently. Statistical significance was determined using the Student's t-test and values of less than 0.05 were considered significant.” for “independently.”
(§4) In order to determine the minimal inhibitory concentration (MIC) for 24/F9, 24/D4 and 23/G4, the broth dilution method may be performed.

MRSA ATCC 43300 = experiment: MIC by broth dilution method; assay type: cell-based, Methicillin-resistant Staphylococcus aureus
Description: as §3, with “nm). MIC 50 and MIC 99 are defined as the minimum inhibitory concentration of the compound required for 50% and 99% inhibition of bacterial growth.” for “nm).”, “independently. Statistical significance was determined using the Student's t-test and values of less than 0.05 were considered significant.” for “independently.”
as §4

[5] = test system: twelve different cell lines, representing eight different cancer types; conditions: cited from earlier work
[6] = Staph. aureus ATCC 25923 (Table 3)

OC1C(NCc2ccccc2)CCCC1Oc1ccccc1Oc1ccc(Cl)cc1 (stereo not shown) [23/G4]
reduction of mammosphere formation (MCF7 cells [1]): 50% | effect on overall cell viability of MCF7 monolayers (MCF7 cell monolayers; 500 nM and 2.5 μM): little or no effect | reduction of viability of MCF7 cells (MCF7 cell monolayers; 5 μM): 70% | effect on viability of hTERT-BJ1 cells (hTERT-BJ1 cells): no effect | reduction of ATP levels (MCF7 cells [2]; 500 nM): > 50% | reduction of ATP levels (MCF7 cells [2]; 2.5 μM, FIG. 7): ~75% | reduction in ATP levels (MCF7 cells [2]; 5 μM, FIG. 10): greater than 75% | increase in glycolysis rates (MCF7 cells [2]; ECAR): more than 1.5 fold | inhibition of mitochondrial oxygen-consumption (MCF7 cells [2]; FIGS. 7, 8 and 9): dose-dependently inhibited | rank order potency to reduce maximal respiration and ATP production (MCF7 cells [2]; top 10 hits, FIG. 10): top 6 | MIC 50% (E. coli ATCC 25922): >16 µg/mL | MIC 99% (E. coli ATCC 25922): >32 µg/mL | MIC 50% (K. pneumoniae ATCC 13883): 16 µg/mL (≈ 37.7 µM) | MIC 99% (K. pneumoniae ATCC 13883): 32 µg/mL (≈ 75.5 µM) | MIC 50% ([3]; MSSA ATCC 25923 (Table 4)): 4 µg/mL (≈ 9.44 µM) | MIC 99% ([3]; MSSA ATCC 25923 (Table 4)): 8 µg/mL (≈ 18.9 µM) | MIC 50% [3, 6]: 4 µg/mL (≈ 9.44 µM) | MIC 99% [3, 6]: 8 µg/mL (≈ 18.9 µM) | MIC 50% [4]: 4 µg/mL (≈ 9.44 µM) | MIC 99% [4]: 8 µg/mL (≈ 18.9 µM) | MIC 50% (P. auriginosa ATCC 27853): 16 µg/mL (≈ 37.7 µM) | MIC 99% (P. auriginosa ATCC 27853): 32 µg/mL (≈ 75.5 µM) | MIC 50% (C. albicans): 8 µg/mL (≈ 18.9 µM) | MIC 99% (C. albicans): 16 µg/mL (≈ 37.7 µM) | MIC 50% (MRSA ATCC 43300; MRSA ATCC 43300): 16 µg/mL (≈ 37.7 µM) | MIC 99% (MRSA ATCC 43300; MRSA ATCC 43300): >32 µg/mL | sensitivity of MRSA (MRSA ATCC 43300; MRSA, summary of Table 4): sensitive

CC[C@H]1OC(=O)[C@H](C)[C@@H](O[C@H]2C[C@@](C)(OC)[C@@H](O)[C@H](C)O2)[C@H](C)[C@@H](O[C@@H]2O[C@H](C)C[C@H](N(C)C)[C@H]2O)[C@](C)(O)C[C@@H](C)C(=O)[C@H](C)[C@@H](O)[C@]1(C)O [Erithromycin]
efficacy in cancer cell lines [5]: show efficacy
